# Measurements: PubChem BioAssay AID463229 (Broad Institute, 2010)
# System: INS-1E rat beta cells, no cytokines, CellTiter-Glo ATP, 48 h
# Test: ATP level change in INS-1E without cytokines, dose response, counter-screen for beta-cell apoptosis protection project, INS-1E rat cells, ATP luminescence, cherry pick (AID 463229)
row,SMILES,AC50 [µM]
1,Cc1cccc(NC(=S)N/N=C/c2ccc([N+](=O)[O-])s2)c1,7.67
2,C=C(C)C(=O)N1CC2(CC(c3cccc(NC(=O)COc4ccc(Cl)cc4)c3)=NO2)C[C@@H]1C(N)=O (some centres undefined),12.8
3,COc1ccccc1N1C(C)=CC(=C(C#N)c2nc3ccccc3s2)C=C1C,8.66
4,COc1ccc(C(=O)NC(=S)NNC(=O)c2cnccn2)cc1,5.21
5,CCCCn1c(/C=N/Nc2nc3ccccc3[nH]2)nc2ccccc21,14.1
6,CCOC(=O)c1cnc(-n2nc(C)cc2C)nc1NNc1nc(-c2ccccc2)cc(-c2ccccc2)n1,4.09
7,CC1(C)C[C@@H]2C[C@@](C)(CN2C(=O)c2cc(COc3cccc(C(F)(F)F)c3)on2)C1,17
8,CCCCCCCCCCCCn1ccc(=N)cc1,0.515
9,CC(C)(C)c1ccc(C(=O)Nc2ccc(C(=O)NCc3cccnc3)cc2)cc1,< 0.195
10,COC(=O)c1ccc(NC(=O)c2nc(S(=O)(=O)Cc3cccc(C)c3)ncc2Cl)cc1,10.8
11,CCN(CC)Cc1c(O)ccc2c1O/C(=C\C=C\c1ccccc1)C2=O,14.4
12,Cc1cc(C)c2c(ccc3cccc[n+]32)c1,6.45
13,c1ccc(-c2nc(N3CCCCCC3)c3ccccc3n2)nc1,6.8
14,CCCCSc1ccc(NC(=O)c2cccnc2)cc1,14.7
15,O=C(NC(=S)NNC(=O)c1cnccn1)c1ccc(F)cc1,3.48
16,O=C(NC(Nc1nc2ccc([N+](=O)[O-])cc2s1)(C(F)(F)F)C(F)(F)F)c1ccccc1,0.367
17,COc1ccc(C(=O)Nc2ccccc2C(=O)N/N=C/c2ccccn2)cc1OC,8.14
18,Oc1ccc(Br)cc1-c1cc(-c2ccc(Cl)cc2)n[nH]1,11.1
19,COC(=O)c1c(C)oc2ccc(N(C(=O)c3ccncc3)S(=O)(=O)c3ccc(C)cc3C)cc12,5.76
20,CCCNC(=O)c1ccc2c(=O)c(O)c(-c3cccc(Br)c3)[nH]c2c1,4.63
21,Cc1ccc2c(c1)S/C(=C/c1ccc[n+](C)c1)N2CCO,3.24
22,COc1cccc(N=Nc2ccc3cccnc3c2O)c1,6.8
23,CCCCC(=O)NC(c1cccs1)c1cc(Cl)c2cccnc2c1O (centres undefined),5.89
24,CC(C)(C)c1cc(NCCCn2ccnc2)n2ncc(-c3ccccc3)c2n1,15
25,CC1CCc2c(sc3nc(C(C)(C)C)nc(N4CCN(C(=O)CCl)CC4)c23)C1 (centres undefined),7.59
26,Cc1[nH]n(-c2ccc(Br)cc2)c(=O)c1/C=N/NC(=O)c1ccccc1,2.13
27,COc1ccccc1C(NC(C)=O)c1cc(Cl)c2cccnc2c1O (centres undefined),7.24

row,SMILES,AC50 [µM]
1,CC(CCCC(C)(C)O)NC(=O)c1cc(COc2ccc3ncccc3c2)on1 (centres undefined),8.48
2,On1onc2c3cc(-c4ccccc4)nc3ccc21,5.23
3,O=C1N/C(=N/N=C/c2ccccc2O)SC1Cc1ccc(F)cc1 (centres undefined),14.6
4,COc1ccc(C[C@H]2CN3C(=NC[C@@H]3Cc3ccccc3)N2CCNC(=O)CCC2CCCCC2)cc1,12.1
5,C/C(=N\NC(=O)C(C)Oc1ccc([N+](=O)[O-])cc1)c1ccccn1 (centres undefined),4.2
6,c1nc(NCc2ccc3c(c2)OCO3)c2cc(-c3ccc4c(c3)OCCO4)ccc2n1,15.5
7,COc1ccc2[nH]c(C(=O)N/N=C/c3ccc(O)cc3O)cc2c1,2.08
8,COc1ccc(NC(=O)/C(Cl)=C(/Cl)S(=O)Cc2ccc(C)cc2)cn1 (centres undefined),1.3
9,CC(=O)Nc1sc2c(c1-c1nc3ccccc3s1)CCN(C(C)C)C2,5.11
10,CC(=O)c1c(C)oc2ccc(N(C(C)=O)S(=O)(=O)c3cccc4cccnc34)cc12,7.79
11,COc1ccc(-n2c(CNc3ccc(C)cc3)nnc2SCC(=O)Nc2nc(-c3ccccc3)cs2)cc1,12.7
12,C(C#CCCCCCCCCC[n+]1ccccc1)#CCCCCCCCCC[n+]1ccccc1,1.9
13,N#C/C(=C/c1ccc(N2CCCCCC2)o1)c1ccc(Cl)cc1,24.3
14,CC1(C)CCN2CCC(C)(C)c3c(O)ccc1c32,13.2
15,COc1ccccc1N(CC(=O)N/N=C/c1c(O)ccc2ccccc12)S(C)(=O)=O,7.54
16,CCC1(c2ccc(F)cc2)NC(=O)N(CC(=O)Nc2ccc(-c3nc4ccc(C)cc4s3)cc2)C1=O (centres undefined),12.4
17,c1ccc2c(CN3CCCCCCC3)c[nH]c2c1,4.48
18,NC(=S)N/N=C/c1ccc(C23CC4CC(CC(C4)C2)C3)cc1,12.2
19,CCCOc1ccc(Cc2c(Cl)nc(SC)nc2NC)cc1,6.05
20,COc1ccc2nc(C)cc(N/N=C/c3ccccc3)c2c1,13.8
21,CCCOc1nc2c(c(=O)n(C)c(=O)n2C)n1Cc1cccc2ccccc12,14.4
22,Cc1nc(NCCc2ccc(S(N)(=O)=O)cc2)c2c(C)c(C)sc2n1,6.2
23,O=C(NCc1cccnc1)c1cc(-c2ccco2)on1,2.27
24,CC[N+]1=C(C)C(C)(C)c2cc(C)ccc21,8.15
25,Cc1cc(Cl)c(S(=O)(=O)N2CCN(c3ccc(F)cc3)CC2)cc1OCC(=O)NC1CCCCC1,7.07
26,CCCCC(=O)NC(c1ccc(N(CC)CC)cc1)c1ccc2cccnc2c1O (centres undefined),1.37
27,Cc1ccc(-c2cc(-c3ccc(C)cc3)[n+](-c3ccc(C(=O)[O-])cc3)c(-c3ccc(C)cc3)c2)cc1,7.24
